In ChEMBL document CHEMBL3885861, “Open TG-GATES”:

Organism: Rattus norvegicus
Experiment: Open TG-GATES - Regimen: Daily Repeat
Format: toxicity, organism-based, Sprague-Dawley
Parameters: regimen Daily Repeat, gender Male, age 6 weeks
Settings: in vivo, po, 0 mg/kg, route gavage, dose level Control; for APTT / Bas / Eos / Fbg / Hb / Ht / Lym / MCH / MCHC / MCV / Mono / Neu / PT / Plat / RBC / Ret / WBC: tissue Blood; for KIDNEY_L / KIDNEY_R / KIDNEY_TOTAL: tissue Kidney; for LIVER: tissue Liver; for A/G / ALP / ALT / AST / BUN / CRE / Ca / Cl / DBIL / GLC / IP / K / LDH / Na / PL / RALB / TBIL / TC / TG / TP / gamma-GTP: tissue Plasma

CC(C)NNC(=O)c1ccncc1 [IPRONIAZID] was tested, and the TERMINAL_BW (72 h, time 3 day) was 213.5 g, the APTT (72 h, time 3 day) was 21.8 s and the Bas (72 h, time 3 day) was 0%. For the same compound, the Eos (72 h, time 3 day) was 1%, the Fbg (72 h, time 3 day) was 301.6 mg/dL and the Hb (72 h, time 3 day) was 13.2 g/dL. The Ht (72 h, time 3 day) was 38.2%, the Lym (72 h, time 3 day) was 78.8% and the MCH (72 h, time 3 day) was 21.2 pg. For the same compound, the MCHC (72 h, time 3 day) was 34.5%, the MCV (72 h, time 3 day) was 61.3 fL and the Mono (72 h, time 3 day) was 2.8%. The Neu (72 h, time 3 day) was 16.4%, the PT (72 h, time 3 day) was 16 s and the Plat (72 h, time 3 day) was 127.9 x10_4/uL. For the same compound, the RBC (72 h, time 3 day) was 622.8 x10_4/ul, the Ret (72 h, time 3 day) was 7.5% and the WBC (72 h, time 3 day) was 99.6 x10_2/uL. The KIDNEY_L (72 h, time 3 day) was 1 g, the KIDNEY_R (72 h, time 3 day) was 1 g and the KIDNEY_TOTAL (72 h, time 3 day) was 1.9 g. The LIVER (72 h, time 3 day) was 10.5 g, the A/G (72 h, time 3 day) was 1.3 and the ALP (72 h, time 3 day) was 1294.6 IU/L. For the same compound, the ALT (72 h, time 3 day) was 41 IU/L, the AST (72 h, time 3 day) was 70.2 IU/L and the BUN (72 h, time 3 day) was 18 mg/dL. The CRE (72 h, time 3 day) was 0.2 mg/dL, the Ca (72 h, time 3 day) was 10.8 mg/dL and the Cl (72 h, time 3 day) was 106.6 meq/L. For the same compound, the DBIL (72 h, time 3 day) was 0 mg/dL, the GLC (72 h, time 3 day) was 188.8 mg/dL and the IP (72 h, time 3 day) was 7.2 mg/dL. It also gave a K (72 h, time 3 day) of 4.6 meq/L, an LDH (72 h, time 3 day) of 261.8 IU/L and a Na (72 h, time 3 day) of 141.8 meq/L. It also gave a PL (72 h, time 3 day) of 159.6 mg/dL, an RALB (72 h, time 3 day) of 3.1 g/dL and a TBIL (72 h, time 3 day) of 0.004 mg/dL. It also gave a TC (72 h, time 3 day) of 83.8 mg/dL, a TG (72 h, time 3 day) of 100.4 mg/dL and a TP (72 h, time 3 day) of 5.5 g/dL. It also gave a gamma-GTP (72 h, time 3 day) of 1 IU/L, a TERMINAL_BW ([…], time 7 day) of 239.8 g and a TERMINAL_BW ([…], time 14 day) of 277.2 g. It also gave a TERMINAL_BW ([…], time 28 day) of 363.7 g, an APTT ([…], time 7 day) of 22.5 s and a Bas ([…], time 7 day) of 0%. The Eos ([…], time 7 day) was 0.8%, the Fbg ([…], time 7 day) was 304.6 mg/dL and the Hb ([…], time 7 day) was 13.5 g/dL. The Ht ([…], time 7 day) was 37.7%, the Lym ([…], time 7 day) was 82.4% and the MCH ([…], time 7 day) was 21 pg. The MCHC ([…], time 7 day) was 35.7%, the MCV ([…], time 7 day) was 58.6 fL and the Mono ([…], time 7 day) was 2.2%. The Neu ([…], time 7 day) was 13.8%, the PT ([…], time 7 day) was 15.4 s and the Plat ([…], time 7 day) was 110.1 x10_4/uL. It also gave an RBC ([…], time 7 day) of 642.8 x10_4/ul, a Ret ([…], time 7 day) of 6.4% and a WBC ([…], time 7 day) of 110.4 x10_2/uL. The APTT ([…], time 14 day) was 22.8 s, the Bas ([…], time 14 day) was 0% and the Eos ([…], time 14 day) was 1%. It also gave a Fbg ([…], time 14 day) of 301.2 mg/dL, a Hb ([…], time 14 day) of 13.6 g/dL and a Ht ([…], time 14 day) of 39.5%. For the same compound, the Lym ([…], time 14 day) was 82.8%, the MCH ([…], time 14 day) was 20 pg and the MCHC ([…], time 14 day) was 34.4%. It also gave an MCV ([…], time 14 day) of 58.1 fL, a Mono ([…], time 14 day) of 2.4% and a Neu ([…], time 14 day) of 13.4%. The PT ([…], time 14 day) was 16 s, the Plat ([…], time 14 day) was 110.6 x10_4/uL and the RBC ([…], time 14 day) was 679.4 x10_4/ul. For the same compound, the Ret ([…], time 14 day) was 5.1%, the WBC ([…], time 14 day) was 106.6 x10_2/uL and the APTT ([…], time 28 day) was 25.2 s. It also gave a Bas ([…], time 28 day) of 0%, an Eos ([…], time 28 day) of 0.8% and a Fbg ([…], time 28 day) of 318.6 mg/dL. It also gave a Hb ([…], time 28 day) of 14.5 g/dL, a Ht ([…], time 28 day) of 40.9% and a Lym ([…], time 28 day) of 81.6%. The MCH ([…], time 28 day) was 19.7 pg, the MCHC ([…], time 28 day) was 35.6% and the MCV ([…], time 28 day) was 55.2 fL. It also gave a Mono ([…], time 28 day) of 1.8%, a Neu ([…], time 28 day) of 14.6% and a PT ([…], time 28 day) of 15.8 s. It also gave a Plat ([…], time 28 day) of 108.3 x10_4/uL, an RBC ([…], time 28 day) of 741.4 x10_4/ul and a Ret ([…], time 28 day) of 3%. It also gave a WBC ([…], time 28 day) of 103.1 x10_2/uL, a KIDNEY_L ([…], time 7 day) of 1 g and a KIDNEY_R ([…], time 7 day) of 1 g. For the same compound, the KIDNEY_TOTAL ([…], time 7 day) was 2 g, the KIDNEY_L ([…], time 14 day) was 1.1 g and the KIDNEY_R ([…], time 14 day) was 1.1 g. It also gave a KIDNEY_TOTAL ([…], time 14 day) of 2.1 g, a KIDNEY_L ([…], time 28 day) of 1.4 g and a KIDNEY_R ([…], time 28 day) of 1.4 g. The KIDNEY_TOTAL ([…], time 28 day) was 2.8 g, the LIVER ([…], time 7 day) was 11.2 g and the LIVER ([…], time 14 day) was 11.8 g. It also gave an LIVER ([…], time 28 day) of 15.8 g, an A/G ([…], time 7 day) of 1.1 and an ALP ([…], time 7 day) of 1693 IU/L. For the same compound, the ALT ([…], time 7 day) was 46.6 IU/L, the AST ([…], time 7 day) was 77.8 IU/L and the BUN ([…], time 7 day) was 19.2 mg/dL. It also gave a CRE ([…], time 7 day) of 0.2 mg/dL, a Ca ([…], time 7 day) of 10.6 mg/dL and a Cl ([…], time 7 day) of 106.4 meq/L. The DBIL ([…], time 7 day) was 0 mg/dL, the GLC ([…], time 7 day) was 198.4 mg/dL and the IP ([…], time 7 day) was 6.8 mg/dL. The K ([…], time 7 day) was 4 meq/L, the LDH ([…], time 7 day) was 220.4 IU/L and the Na ([…], time 7 day) was 141.2 meq/L. It also gave a PL ([…], time 7 day) of 156.2 mg/dL, an RALB ([…], time 7 day) of 2.9 g/dL and a TBIL ([…], time 7 day) of 0.002 mg/dL. For the same compound, the TC ([…], time 7 day) was 77.4 mg/dL, the TG ([…], time 7 day) was 110.6 mg/dL and the TP ([…], time 7 day) was 5.5 g/dL. For the same compound, the gamma-GTP ([…], time 7 day) was 1.2 IU/L, the A/G ([…], time 14 day) was 1.1 and the ALP ([…], time 14 day) was 1298.6 IU/L. The ALT ([…], time 14 day) was 35.8 IU/L, the AST ([…], time 14 day) was 68.4 IU/L and the BUN ([…], time 14 day) was 20.2 mg/dL. It also gave a CRE ([…], time 14 day) of 0.2 mg/dL, a Ca ([…], time 14 day) of 10.5 mg/dL and a Cl ([…], time 14 day) of 107.4 meq/L. The DBIL ([…], time 14 day) was 0 mg/dL, the GLC ([…], time 14 day) was 187.4 mg/dL and the IP ([…], time 14 day) was 5.9 mg/dL. For the same compound, the K ([…], time 14 day) was 4 meq/L, the LDH ([…], time 14 day) was 176.8 IU/L and the Na ([…], time 14 day) was 141.8 meq/L. It also gave a PL ([…], time 14 day) of 135.2 mg/dL, an RALB ([…], time 14 day) of 3 g/dL and a TBIL ([…], time 14 day) of 0.006 mg/dL. The TC ([…], time 14 day) was 66.8 mg/dL, the TG ([…], time 14 day) was 126.6 mg/dL and the TP ([…], time 14 day) was 5.7 g/dL. It also gave a gamma-GTP ([…], time 14 day) of 1.6 IU/L, an A/G ([…], time 28 day) of 1.1 and an ALP ([…], time 28 day) of 1067.8 IU/L. The ALT ([…], time 28 day) was 38.8 IU/L, the AST ([…], time 28 day) was 65.4 IU/L and the BUN ([…], time 28 day) was 17.4 mg/dL. It also gave a CRE ([…], time 28 day) of 0.2 mg/dL, a Ca ([…], time 28 day) of 10.7 mg/dL and a Cl ([…], time 28 day) of 105.2 meq/L. It also gave a DBIL ([…], time 28 day) of 0.002 mg/dL, a GLC ([…], time 28 day) of 190.8 mg/dL and an IP ([…], time 28 day) of 6.6 mg/dL. It also gave a K ([…], time 28 day) of 4 meq/L, an LDH ([…], time 28 day) of 171.2 IU/L and a Na ([…], time 28 day) of 142 meq/L. The PL ([…], time 28 day) was 142.4 mg/dL, the RALB ([…], time 28 day) was 3.2 g/dL and the TBIL ([…], time 28 day) was 0.014 mg/dL. It also gave a TC ([…], time 28 day) of 70.8 mg/dL, a TG ([…], time 28 day) of 137.6 mg/dL and a TP ([…], time 28 day) of 6.1 g/dL. It also gave a gamma-GTP ([…], time 28 day) of 1.6 IU/L.
